Measurements from paper PMC10825183 (Nature Communications, 2024).
Several values for one entry are separate records, joined by “and”; a condition that tells them apart may be missing. Equal values may be shown once. Read-outs that look alike come from different tables or passages of the source.

Assays:
ΔDE (mHCN2 1-640) = target: T1, ΔDE (mHCN2 1-640) (Mus musculus, UniProt O88703); assay: Confocal patch-clamp fluorometry (cPCF), oocyte macropatches; assay type: binding; settings: for factor of relative fluorescence increase: individual patches
T1 construct: full length mHCN2 and ΔDE (mHCN2 1-640) mutant channels, both expressed in Xenopus oocytes; expressed in transfected cells; host or cells: Xenopus laevis oocytes (cRNA injection, pGEMHE)
T1 sequence (O88703 1-640): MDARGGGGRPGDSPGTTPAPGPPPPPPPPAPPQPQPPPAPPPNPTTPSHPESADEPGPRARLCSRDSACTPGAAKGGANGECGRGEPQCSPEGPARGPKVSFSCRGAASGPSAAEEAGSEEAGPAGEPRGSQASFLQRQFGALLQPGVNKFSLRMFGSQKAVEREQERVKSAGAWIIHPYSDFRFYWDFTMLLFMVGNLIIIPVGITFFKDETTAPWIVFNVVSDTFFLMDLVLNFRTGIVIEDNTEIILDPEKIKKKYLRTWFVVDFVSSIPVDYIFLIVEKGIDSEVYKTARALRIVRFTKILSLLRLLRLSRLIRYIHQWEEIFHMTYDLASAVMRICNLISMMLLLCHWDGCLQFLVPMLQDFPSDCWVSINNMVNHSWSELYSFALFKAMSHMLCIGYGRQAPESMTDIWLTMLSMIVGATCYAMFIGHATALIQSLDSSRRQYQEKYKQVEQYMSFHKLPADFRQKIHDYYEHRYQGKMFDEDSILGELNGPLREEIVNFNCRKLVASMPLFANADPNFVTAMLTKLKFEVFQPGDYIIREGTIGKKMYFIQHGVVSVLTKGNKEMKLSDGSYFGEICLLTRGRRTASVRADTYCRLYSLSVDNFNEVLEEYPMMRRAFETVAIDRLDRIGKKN
Experimental: (§1) We tested this hypothesis using confocal patch-clamp fluorometry (cPCF)[8], measuring current activation and ligand binding in parallel.
(§2) Oocytes were surgically removed from adult females of the South African clawed frog Xenopus laevis under anesthesia (0.3% MS-222 (tricaine methanesulfonate) (Pharmaq, Fordingbridge, UK)). The surgery procedures were carried out in accordance with the German Animal Welfare Act with the approval of the Thuringian State Office for Consumer Protection on 30.08.2013 and 09.05.2018. The oocytes were treated with collagenase A (3 mg/mL; Roche Diagnostics (Grenzach-Wyhlen, Germany)) for 105 min in Ca^2+-free Barth solution containing 82.5 mM NaCl, 2 mM KCl, 1 mM MgCl2, and 5 mM HEPES (pH 7.5). Oocytes of stages IV and V were manually dissected and injected with cRNA-encoding mHCN2 channels of Mus musculus or constructs carrying a point mutation. After injection with cRNA, the oocytes were cultured at 18 °C for 2–10 days in Barth solution containing 84 mM NaCl, 1 mM KCl, 2.4 mM NaHCO3, 0.82 mM MgSO4, 0.41 mM CaCl2, 0.33 mM Ca(NO3)2, 7.5 mM Tris, cefuroxime, and penicillin/streptomycin (pH 7.4). The procedures had approval from the authorized animal ethics committee of the Friedrich Schiller University Jena. The methods were performed according to approved guidelines. Oocytes harvested in our laboratory were complemented with ready-to-use oocytes purchased from EcoCyte Bioscience (Dortmund, Germany).
(§3) The recordings were performed with an LSM 710 confocal microscope (Carl Zeiss, Jena, Germany) and were triggered by the ISO3 software (MFK, Niedernhausen, Germany). To distinguish the fluorescence of the nonbound f1cAMP from that of the bound f1cAMP, a second, chemically related dye, DY647 (Dyomics, Jena, Germany), was also added to the bath solution. The 543- and 633-nm lines of an He-Ne laser were used to excite f1cAMP and DY647, respectively. For quantifying the bound f1cAMP, the fluorescence intensities of the red and the green channels were corrected for small offsets, and the fluorescence in the red channel was scaled to the fluorescence in the green channel in the bath. The difference between the measured green and the scaled red profile for each pixel of the confocal image represents the fraction of the fluorescence signal originating from the bound f1cAMP. The free patch membrane (patch dome) only was used to quantify binding by setting a mask at a region of interest. The fluorescence, F, was averaged over all pixels inside this mask and normalized in each patch concerning the fluorescence at saturating (f1cAMP) and full channel activation (−130 mV), Fmax. The recording rate of the confocal images was 10 Hz.

full length mHCN2 [1] = target: T2, full length mHCN2 (Mus musculus, UniProt O88703); assay: as above; assay type: binding; settings: for factor of relative fluorescence increase: individual patches
T2 construct: to full length mHCN2 and ΔDE (mHCN2 1-640) mutant channels, both expressed in Xenopus oocytes; expressed in transfected cells; host or cells: Xenopus laevis oocytes (cRNA injected; pGEMHE vector); excised macropatches
T2 sequence (O88703 1-863): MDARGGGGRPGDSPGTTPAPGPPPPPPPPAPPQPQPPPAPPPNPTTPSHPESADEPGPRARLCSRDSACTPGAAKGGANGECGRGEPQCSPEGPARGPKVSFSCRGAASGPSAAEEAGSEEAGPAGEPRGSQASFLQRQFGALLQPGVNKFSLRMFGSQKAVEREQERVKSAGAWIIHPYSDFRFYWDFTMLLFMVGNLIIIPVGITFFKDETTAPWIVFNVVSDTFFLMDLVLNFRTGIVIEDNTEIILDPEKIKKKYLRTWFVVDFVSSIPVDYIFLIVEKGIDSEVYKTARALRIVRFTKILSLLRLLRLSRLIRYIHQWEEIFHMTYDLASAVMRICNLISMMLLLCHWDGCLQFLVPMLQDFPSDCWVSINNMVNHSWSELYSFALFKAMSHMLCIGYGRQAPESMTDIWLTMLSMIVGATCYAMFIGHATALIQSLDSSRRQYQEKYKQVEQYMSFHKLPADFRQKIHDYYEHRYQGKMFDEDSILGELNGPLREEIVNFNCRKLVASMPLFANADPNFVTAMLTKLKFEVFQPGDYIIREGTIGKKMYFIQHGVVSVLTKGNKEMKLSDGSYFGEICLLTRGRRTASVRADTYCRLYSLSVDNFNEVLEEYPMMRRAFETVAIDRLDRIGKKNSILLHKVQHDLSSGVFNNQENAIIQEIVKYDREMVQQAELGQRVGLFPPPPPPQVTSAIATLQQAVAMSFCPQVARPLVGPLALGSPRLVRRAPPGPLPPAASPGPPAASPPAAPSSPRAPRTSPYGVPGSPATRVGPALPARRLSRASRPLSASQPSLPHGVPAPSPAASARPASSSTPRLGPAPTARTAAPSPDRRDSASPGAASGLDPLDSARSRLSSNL
Experimental: as §1, §2, §3

full length mHCN2 [2] = target: T2, full length mHCN2; settings: read-out: binding affinity BC50, cited from earlier work

8-Cy3B-AHT-cAMP [f1cAMP]
mean increase of fluorescence intensity upon activation, F–130 mV/F−30mV (ΔDE (mHCN2 1-640); 0.25 µM f1cAMP, n = 4): 2.1 ± 0.3
factor of relative fluorescence increase (ΔDE (mHCN2 1-640); fcAMP 0.25 µM): 1.6 and 2.4 and 1.7 and 2.6
factor of relative fluorescence increase (ΔDE (mHCN2 1-640); fcAMP 2.5 µM): 1.1 and 1.3 and 1.2
mean increase of fluorescence intensity upon activation, F–130 mV/F−30mV (full length mHCN2 [1]; 0.25 µM f1cAMP, n = 9): 1.6 ± 0.1
F-130 mV/F−30mV (full length mHCN2 [1]; 2.5 µM f1cAMP, n = 7): 1.1 ± 0.04
factor of relative fluorescence increase (full length mHCN2 [1]; fcAMP 0.25 µM): 1.7 and 1.6 and 1.9 and 2.2 and 1.3 and 1.2
factor of relative fluorescence increase (full length mHCN2 [1]; fcAMP 2.5 µM): 0.9 and 1.1 and 1.3 and 1.0 and 1.2
Kd (full length mHCN2 [2]; activated mHCN2 channels): 250 nM
Kd (full length mHCN2 [2]; non-activated mHCN2 channels): 980 nM
